# Laboratory results published in US4471131A, “Novel silyl esters of N-phosphonomethylglycine” (Monsanto Company, priority 1983, dated 1984).
# Key:
# Assay in all cases: post-emergence herbicidal activity, greenhouse
# Assay type in all cases: in vivo
# Barnyardgrass = conditions: formulated in anhydrous tetrahydrofuran
# In short: (§1)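 Candidate chemical is applied by atomizer at the indicated rates to emerged plants of 2–3 weeks, spray containing about 0.4 wt% emulsifier. Effects are judged as injury against unsprayed control pans, approximately two and four weeks post-application.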
# Canada Thistle = conditions: Table II, formulated in anhydrous tetrahydrofuran
# In short: as §1
# Cocklebur = conditions: formulated in anhydrous tetrahydrofuran
# In short: as §1
# Common Lambsquarters = conditions: formulated in anhydrous tetrahydrofuran
# In short: as §1
# Downy Brome = conditions: formulated in anhydrous tetrahydrofuran
# In short: as §1
# Hemp Sesbania = conditions: Table III, formulated in anhydrous tetrahydrofuran
# In short: as §1
# Johnsongrass = conditions: Table II, formulated in anhydrous tetrahydrofuran
# In short: as §1
# Large Crabgrass = conditions: Table III, formulated in anhydrous tetrahydrofuran
# In short: as §1
# Morningglory = conditions: Table II, formulated in anhydrous tetrahydrofuran
# In short: as §1
smiles,measurement,setting,value
"CCCCOC(=O)CNCP(=O)(O)O[Si](C)(C)C(C)(C)C [Ex. 3, Glycine, N-((([(1,1-Dimethylethyl)Dimethylsilyl]oxy)Hydroxyphosphinyl)Methyl)-, Butyl Ester]",Plant Response Index (K),"Barnyardgrass; Table II, 2 WAT, 5.6 kg/h",2 (50-74% inhibition)
same,Plant Response Index (K),"Barnyardgrass; Table II, 2 WAT, 11.2 kg/h",2 (50-74% inhibition)
same,Plant Response Index (K),"Barnyardgrass; Table II, 4 WAT, 5.6 kg/h",2 (50-74% inhibition)
same,Plant Response Index (K),"Barnyardgrass; Table II, 4 WAT, 11.2 kg/h",3 (75-99% inhibition)
same,Plant Response Index (K),"Barnyardgrass; Table III, 2 WAT, 1.1 kg/h",2 (50-74% inhibition)
same,Plant Response Index (K),"Barnyardgrass; Table III, 2 WAT, 5.6 kg/h",2 (50-74% inhibition)
same,Plant Response Index (K),"Barnyardgrass; Table III, 2 WAT, .28 kg/h",1 (25-49% inhibition)
same,Plant Response Index (K),"Barnyardgrass; Table III, 4 WAT, 1.1 kg/h",2 (50-74% inhibition)
same,Plant Response Index (K),"Barnyardgrass; Table III, 4 WAT, 5.6 kg/h",3 (75-99% inhibition)
same,Plant Response Index (K),"Barnyardgrass; Table III, 4 WAT, .28 kg/h",1 (25-49% inhibition)
same,Plant Response Index (A),"Canada Thistle; 2 WAT, 5.6 kg/h",1 (25-49% inhibition)
same,Plant Response Index (A),"Canada Thistle; 2 WAT, 11.2 kg/h",1 (25-49% inhibition)
same,Plant Response Index (A),"Canada Thistle; 4 WAT, 5.6 kg/h",1 (25-49% inhibition)
same,Plant Response Index (A),"Canada Thistle; 4 WAT, 11.2 kg/h",2 (50-74% inhibition)
same,Plant Response Index (B),"Cocklebur; Table II, 2 WAT, 5.6 kg/h",1 (25-49% inhibition)
same,Plant Response Index (B),"Cocklebur; Table II, 2 WAT, 11.2 kg/h",1 (25-49% inhibition)
same,Plant Response Index (B),"Cocklebur; Table II, 4 WAT, 5.6 kg/h",1 (25-49% inhibition)
same,Plant Response Index (B),"Cocklebur; Table II, 4 WAT, 11.2 kg/h",2 (50-74% inhibition)
same,Plant Response Index (B),"Cocklebur; Table III, 2 WAT, 1.1 kg/h",2 (50-74% inhibition)
same,Plant Response Index (B),"Cocklebur; Table III, 2 WAT, 5.6 kg/h",2 (50-74% inhibition)
same,Plant Response Index (B),"Cocklebur; Table III, 2 WAT, .28 kg/h",2 (50-74% inhibition)
same,Plant Response Index (B),"Cocklebur; Table III, 4 WAT, 1.1 kg/h",1 (25-49% inhibition)
same,Plant Response Index (B),"Cocklebur; Table III, 4 WAT, 5.6 kg/h",3 (75-99% inhibition)
same,Plant Response Index (B),"Cocklebur; Table III, 4 WAT, .28 kg/h",1 (25-49% inhibition)
same,Plant Response Index (E),"Common Lambsquarters; Table II, 2 WAT, 5.6 kg/h",3 (75-99% inhibition)
same,Plant Response Index (E),"Common Lambsquarters; Table II, 2 WAT, 11.2 kg/h",3 (75-99% inhibition)
same,Plant Response Index (E),"Common Lambsquarters; Table II, 4 WAT, 5.6 kg/h",4 (100% inhibition)
same,Plant Response Index (E),"Common Lambsquarters; Table II, 4 WAT, 11.2 kg/h",4 (100% inhibition)
same,Plant Response Index (E),"Common Lambsquarters; Table III, 2 WAT, 1.1 kg/h",3 (75-99% inhibition)
same,Plant Response Index (E),"Common Lambsquarters; Table III, 2 WAT, 5.6 kg/h",4 (100% inhibition)
same,Plant Response Index (E),"Common Lambsquarters; Table III, 2 WAT, .28 kg/h",3 (75-99% inhibition)
same,Plant Response Index (E),"Common Lambsquarters; Table III, 4 WAT, 1.1 kg/h",3 (75-99% inhibition)
same,Plant Response Index (E),"Common Lambsquarters; Table III, 4 WAT, 5.6 kg/h",4 (100% inhibition)
same,Plant Response Index (E),"Common Lambsquarters; Table III, 4 WAT, .28 kg/h",4 (100% inhibition)
same,Plant Response Index (J),"Downy Brome; Table II, 2 WAT, 5.6 kg/h",0 (0-24% inhibition)
same,Plant Response Index (J),"Downy Brome; Table II, 2 WAT, 11.2 kg/h",0 (0-24% inhibition)
same,Plant Response Index (J),"Downy Brome; Table II, 4 WAT, 5.6 kg/h",1 (25-49% inhibition)
same,Plant Response Index (J),"Downy Brome; Table II, 4 WAT, 11.2 kg/h",1 (25-49% inhibition)
same,Plant Response Index (J),"Downy Brome; Table III, 2 WAT, 1.1 kg/h",1 (25-49% inhibition)
same,Plant Response Index (J),"Downy Brome; Table III, 2 WAT, 5.6 kg/h",1 (25-49% inhibition)
same,Plant Response Index (J),"Downy Brome; Table III, 2 WAT, .28 kg/h",1 (25-49% inhibition)
same,Plant Response Index (J),"Downy Brome; Table III, 4 WAT, 1.1 kg/h",1 (25-49% inhibition)
same,Plant Response Index (J),"Downy Brome; Table III, 4 WAT, 5.6 kg/h",1 (25-49% inhibition)
same,Plant Response Index (J),"Downy Brome; Table III, 4 WAT, .28 kg/h",0 (0-24% inhibition)
same,Plant Response Index (R),"Hemp Sesbania; 2 WAT, 1.1 kg/h",1 (25-49% inhibition)
same,Plant Response Index (R),"Hemp Sesbania; 2 WAT, 5.6 kg/h",4 (100% inhibition)
same,Plant Response Index (R),"Hemp Sesbania; 2 WAT, .28 kg/h",1 (25-49% inhibition)
same,Plant Response Index (R),"Hemp Sesbania; 4 WAT, 1.1 kg/h",1 (25-49% inhibition)
same,Plant Response Index (R),"Hemp Sesbania; 4 WAT, 5.6 kg/h",4 (100% inhibition)
same,Plant Response Index (R),"Hemp Sesbania; 4 WAT, .28 kg/h",0 (0-24% inhibition)
same,Plant Response Index (I),"Johnsongrass; 2 WAT, 5.6 kg/h",0 (0-24% inhibition)
same,Plant Response Index (I),"Johnsongrass; 2 WAT, 11.2 kg/h",1 (25-49% inhibition)
same,Plant Response Index (I),"Johnsongrass; 4 WAT, 5.6 kg/h",1 (25-49% inhibition)
same,Plant Response Index (I),"Johnsongrass; 4 WAT, 11.2 kg/h",2 (50-74% inhibition)
same,Plant Response Index (T),"Large Crabgrass; 2 WAT, 1.1 kg/h",3 (75-99% inhibition)
same,Plant Response Index (T),"Large Crabgrass; 2 WAT, 5.6 kg/h",4 (100% inhibition)
same,Plant Response Index (T),"Large Crabgrass; 2 WAT, .28 kg/h",3 (75-99% inhibition)
same,Plant Response Index (T),"Large Crabgrass; 4 WAT, 1.1 kg/h",4 (100% inhibition)
same,Plant Response Index (T),"Large Crabgrass; 4 WAT, 5.6 kg/h",4 (100% inhibition)
same,Plant Response Index (T),"Large Crabgrass; 4 WAT, .28 kg/h",4 (100% inhibition)
same,Plant Response Index (D),"Morningglory; 2 WAT, 5.6 kg/h",1 (25-49% inhibition)
same,Plant Response Index (D),"Morningglory; 2 WAT, 11.2 kg/h",1 (25-49% inhibition)
same,Plant Response Index (D),"Morningglory; 4 WAT, 5.6 kg/h",1 (25-49% inhibition)
same,Plant Response Index (D),"Morningglory; 4 WAT, 11.2 kg/h",2 (50-74% inhibition)
